{
  "source": "ChEMBL document CHEMBL6096697",
  "about": "“Structure-Guided Discovery of Novel N4-(Substituted Thiazol-2-yl)-N2-(4-Substituted phenyl)pyrimidine-2,4-Diamines as Potent CDK2 and CDK9 Dual Inhibitors with High Oral Bioavailability” (J Med Chem, 2025)",
  "key": {"HeLa [1]": {"tested_on": "HeLa", "assay": "Induction of cell cycle arrest at G2/M phase in human HeLa cells assessed as decrease in cyclin B1 level at 1.8 uM by Western blot analysis", "assay_type": "functional, cell-based", "settings": "time <= 48.0 hrs"}, "HeLa [2]": {"tested_on": "HeLa", "assay": "Induction of cell cycle arrest at G2/M phase in human HeLa cells assessed as decrease in p-Cdc2 level at 1.8 uM by Western blot analysis", "assay_type": "functional, cell-based", "settings": "time <= 48.0 hrs"}, "HeLa [3]": {"tested_on": "HeLa", "assay": "Induction of apoptosis in human HeLa cells assessed as viable cells at 0.9 uM incubated for 24 hrs by PI staining based flow cytometry (reference value: 68.9 %)", "assay_type": "functional", "settings": "read-out: Activity"}, "[4]": {"assay": "Toxicity in Balb/c-nu nude mouse xenografted with human HCT-116 cells assessed as toxic reactions at 35 to 70 mg/kg/day, po treated for 30 days", "assay_type": "organism-based", "settings": "in vivo, 720 h, dose 35-70 mg/kg/day, time 30 day"}, "HeLa [5]": {"tested_on": "HeLa", "assay": "Effect on Bax level in human HeLa cells upto 3.6 uM incubated for 24 hrs by Western blot analysis", "assay_type": "functional, cell-based"}, "HCT-116 [6]": {"tested_on": "HCT-116", "assay": "Induction of cell cycle arrest in human HCT-116 cells assessed as accumulation at S phase at 0.8 uM incubated for 24 hrs by PI staining based flow cytometry (reference value: 20.82 +/- 1.24 %)", "assay_type": "functional"}, "[7]": {"assay": "Toxicity in Balb/c-nu nude mouse xenografted with human HCT-116 cells assessed as body weight loss at 35 to 70 mg/kg/day, po treated for 30 days", "assay_type": "organism-based", "settings": "in vivo, 720 h, dose 35-70 mg/kg/day, time 30 day"}, "[8]": {"assay": "Clearance in Sprague-Dawley rat at 10 mg/kg, po measured for 36 hrs by MRM analysis", "assay_type": "ADME, organism-based", "settings": "in vivo"}, "HeLa [9]": {"tested_on": "HeLa", "assay": "Induction of cell cycle arrest in human HeLa cells assessed as accumulation at S phase at 0.9 uM incubated for 24 hrs by PI staining based flow cytometry (reference value: 17.84 +/- 1.89 %)", "assay_type": "functional"}, "[10]": {"molecular_target": "Cyclin-dependent kinase 5/CDK5 activator 1 (Homo sapiens, UniProt Q00535)", "sequence (Q00535 whole entry)": "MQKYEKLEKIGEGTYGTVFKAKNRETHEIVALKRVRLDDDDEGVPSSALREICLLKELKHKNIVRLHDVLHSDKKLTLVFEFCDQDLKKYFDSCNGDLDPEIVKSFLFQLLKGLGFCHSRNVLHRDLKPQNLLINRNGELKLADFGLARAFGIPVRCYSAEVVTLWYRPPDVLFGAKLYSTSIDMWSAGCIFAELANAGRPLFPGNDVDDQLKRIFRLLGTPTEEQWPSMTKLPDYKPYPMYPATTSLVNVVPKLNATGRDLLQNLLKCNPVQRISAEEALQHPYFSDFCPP", "sequence (Q15078 whole entry, further chain)": "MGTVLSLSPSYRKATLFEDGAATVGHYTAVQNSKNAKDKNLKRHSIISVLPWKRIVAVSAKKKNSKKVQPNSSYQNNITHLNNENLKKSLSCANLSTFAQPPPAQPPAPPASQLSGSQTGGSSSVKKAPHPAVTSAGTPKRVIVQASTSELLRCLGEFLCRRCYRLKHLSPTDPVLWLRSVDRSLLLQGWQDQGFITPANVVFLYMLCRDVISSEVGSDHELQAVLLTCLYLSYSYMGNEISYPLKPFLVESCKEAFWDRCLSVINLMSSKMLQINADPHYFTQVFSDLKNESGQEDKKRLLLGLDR", "assay": "Inhibition of CDK5/p35 (unknown origin) using […] incubated for 40 mins in presence of ATP by Kinase-Glo assay", "assay_type": "protein-complex assay"}, "HCT-116 [11]": {"tested_on": "HCT-116", "assay": "Induction of cell cycle arrest in human HCT-116 cells assessed as accumulation at sub-G1 phase at 0.8 uM incubated for 24 hrs by PI staining based flow cytometry (reference value: 2.45 +/- 0.49 %)", "assay_type": "functional"}, "[12]": {"molecular_target": "Cyclin-dependent kinase 7/ cyclin H (Homo sapiens, UniProt P50613)", "sequence (P51946 whole entry)": "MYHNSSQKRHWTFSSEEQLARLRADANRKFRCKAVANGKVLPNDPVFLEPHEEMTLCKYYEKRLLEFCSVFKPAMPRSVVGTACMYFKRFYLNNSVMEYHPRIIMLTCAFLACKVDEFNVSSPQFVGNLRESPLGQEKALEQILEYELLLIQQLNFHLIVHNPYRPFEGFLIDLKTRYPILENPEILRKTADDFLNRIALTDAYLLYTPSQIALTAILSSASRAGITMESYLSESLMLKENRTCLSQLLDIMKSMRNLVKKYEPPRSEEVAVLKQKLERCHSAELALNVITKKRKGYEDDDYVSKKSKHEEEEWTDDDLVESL", "sequence (P50613 whole entry)": "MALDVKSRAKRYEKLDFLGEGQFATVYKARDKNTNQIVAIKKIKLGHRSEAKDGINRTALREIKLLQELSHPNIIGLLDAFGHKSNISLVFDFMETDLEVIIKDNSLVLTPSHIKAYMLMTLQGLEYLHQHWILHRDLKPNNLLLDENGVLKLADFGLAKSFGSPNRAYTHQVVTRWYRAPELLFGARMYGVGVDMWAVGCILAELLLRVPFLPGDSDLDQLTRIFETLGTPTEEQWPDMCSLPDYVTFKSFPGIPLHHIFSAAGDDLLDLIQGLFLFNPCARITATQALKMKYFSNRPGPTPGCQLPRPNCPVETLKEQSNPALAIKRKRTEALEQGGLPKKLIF", "assay": "Inhibition of CDK7/cyclin H (unknown origin) using […] incubated for 40 mins in presence of ATP by Kinase-Glo assay", "assay_type": "protein-complex assay"}, "MDA-MB-231": {"tested_on": "MDA-MB-231", "assay": "Antiproliferative activity against human MDA-MB-231 cells assessed as cell growth inhibition incubated for 48 hrs by MTT assay", "assay_type": "functional, cell-based", "settings": "MDA-MB-231, 48 h"}, "[13]": {"assay": "Inhibition of CDK9/cyclin T (unknown origin) using […] incubated for 40 mins in presence of ATP by Kinase-Glo assay", "design": "species or system Homo sapiens"}, "HeLa [14]": {"tested_on": "HeLa", "assay": "Induction of cell cycle arrest in human HeLa cells assessed as accumulation at G1/G0 phase at 0.9 uM incubated for 24 hrs by PI staining based flow cytometry (reference value: 57.63 +/- 1.7 %)", "assay_type": "functional"}, "[15]": {"molecular_target": "Cyclin-dependent kinase 2 (Homo sapiens) (UniProt P24941)", "assay": "Inhibition of CDK2 in human HCT-116 cells assessed as reduction in Rb phosphorylation at Ser780 incubated for 24 hr s by Western blot analysis", "assay_type": "cell-based", "settings": "dose <= 0.8 µM"}, "[16]": {"assay": "Apparent volume of distribution in Sprague-Dawley rat at 10 mg/kg, po measured for 36 hrs by MRM analysis", "assay_type": "ADME, organism-based", "settings": "in vivo"}, "HeLa [17]": {"tested_on": "HeLa", "assay": "Induction of apoptosis in human HeLa cells assessed as early apoptotic cells at 1.8 uM incubated for 24 hrs by PI staining based flow cytometry (reference value: 0.8 %)", "assay_type": "functional"}, "HCT-116 [18]": {"tested_on": "HCT-116", "assay": "Induction of cell cycle arrest in human HCT-116 cells assessed as accumulation at G2/M phase at 0.2 uM incubated for 24 hrs by PI staining based flow cytometry (reference value: 20.6 +/- 3.38 %)", "assay_type": "functional"}, "HCT-116 [19]": {"tested_on": "HCT-116", "assay": "Antitumor activity against human HCT-116 cells xenografted in Balb/c-nu nude mouse at 35 mg/kg/day, po treated for 7 days consecutively relative to control", "assay_type": "functional", "settings": "HCT-116, 168 h, time 7 day, read-out: TGI"}, "HCT-116 [20]": {"tested_on": "HCT-116", "assay": "Induction of cell cycle arrest in human HCT-116 cells assessed as accumulation at S phase at 0.4 uM incubated for 24 hrs by PI staining based flow cytometry (reference value: 20.82 +/- 1.24 %)", "assay_type": "functional"}, "[21]": {"molecular_target": "Cyclin-dependent kinase 2 (Homo sapiens) (UniProt P24941)", "assay": "Inhibition of CDK2 in human HCT-116 cells assessed as reduction in Rb phosphorylation at Ser807/811 incubated for 24 hr s by Western blot analysis", "assay_type": "cell-based", "settings": "dose <= 0.8 µM"}, "[22]": {"assay": "MRT (0 to t) in Sprague-Dawley rat at 2 mg/kg, iv measured for 36 hrs by MRM analysis", "assay_type": "ADME, organism-based", "settings": "in vivo"}, "HCT-116 [23]": {"tested_on": "HCT-116", "assay": "Induction of apoptosis in human HCT-116 cells assessed as increase in cleaved PARP level upto 0.8 uM incubated for 24 hrs by Western blot analysis", "assay_type": "functional, cell-based"}, "[24]": {"assay": "Tmax in Sprague-Dawley rat at 10 mg/kg, po measured for 36 hrs by MRM analysis", "assay_type": "ADME, organism-based", "settings": "in vivo"}, "HCT-116 [25]": {"tested_on": "HCT-116", "assay": "Induction of cell cycle arrest in human HCT-116 cells assessed as accumulation at G2/M phase at 0.4 uM incubated for 24 hrs by PI staining based flow cytometry (reference value: 20.6 +/- 3.38 %)", "assay_type": "functional"}, "HCT-116 [26]": {"tested_on": "HCT-116", "assay": "Induction of apoptosis in human HCT-116 cells assessed as early apoptotic cells at 0.8 uM incubated for 24 hrs by PI staining based flow cytometry (reference value: 0.19 %)", "assay_type": "functional"}, "HeLa [27]": {"tested_on": "HeLa", "assay": "Induction of cell cycle arrest in human HeLa cells assessed as accumulation at sub-G1 phase at 1.8 uM incubated for 24 hrs by PI staining based flow cytometry (reference value: 1.89 +/- 0.56 %)", "assay_type": "functional"}, "HeLa [28]": {"tested_on": "HeLa", "assay": "Induction of cell cycle arrest in human HeLa cells assessed as accumulation at G1/G0 phase at 1.8 uM incubated for 24 hrs by PI staining based flow cytometry (reference value: 57.63 +/- 1.7 %)", "assay_type": "functional"}, "HCT-116 [29]": {"tested_on": "HCT-116", "assay": "Induction of apoptosis in human HCT-116 cells assessed as decrease in Bcl-2 level upto 0.8 uM incubated for 24 hrs by Western blot analysis", "assay_type": "functional, cell-based"}, "HCT-116 [30]": {"tested_on": "HCT-116", "assay": "Induction of apoptosis in human HCT-116 cells assessed as late apoptotic cells at 0.2 uM incubated for 24 hrs by PI staining based flow cytometry (reference value: 1.11 %)", "assay_type": "functional"}, "[31]": {"assay": "AUC (0 to t) in Sprague-Dawley rat at 10 mg/kg, po measured for 36 hrs by MRM analysis", "assay_type": "ADME, organism-based", "settings": "in vivo"}, "[32]": {"assay": "Cmax in Sprague-Dawley rat at 10 mg/kg, po measured for 36 hrs by MRM analysis", "assay_type": "ADME, organism-based", "settings": "in vivo"}, "HeLa [33]": {"tested_on": "HeLa", "assay": "Induction of cell cycle arrest at G2/M phase in human HeLa cells assessed as decrease in p-Cdc2 level incubated for 48 hrs by Western blot analysis", "assay_type": "functional, cell-based", "settings": "dose <= 3.6 µM"}, "[34]": {"assay": "Clearance in Sprague-Dawley rat at 2 mg/kg, iv measured for 36 hrs by MRM analysis", "assay_type": "ADME, organism-based", "settings": "in vivo"}, "HCT-116 [35]": {"tested_on": "HCT-116", "assay": "Effect on Bax level in human HCT-116 cells upto 0.8 uM incubated for 24 hrs by Western blot analysis", "assay_type": "functional, cell-based"}},
  "note": "Calls of active or inactive are those of the source. The calls are words filed in the database; no cut-off is given here.",
  "data": [
    {"compound": "Cc1cnc(Nc2ccc(S(N)(=O)=O)cc2)nc1Nc1nccs1", "values": [
      {"measurement": "Activity", "setting": "HeLa [1]", "value": "Time-dependent-effect"},
      {"measurement": "Activity", "setting": "HeLa [2]", "value": "Time-dependent-effect"},
      {"measurement": "viability at 0.9 µM", "setting": "HeLa [3]", "value": 29.1, "unit": "%"},
      {"measurement": "Activity", "setting": "[4]", "value": "Non-toxic"},
      {"measurement": "Activity", "setting": "HeLa [5]", "value": "No effect"},
      {"measurement": "Activity", "setting": "HCT-116 [6]", "value": 20.18, "unit": "%"},
      {"measurement": "Activity", "setting": "[7]", "value": "Non-toxic"},
      {"measurement": "CL/F", "setting": "[8]", "value": 1180, "unit": "mL/min/kg"},
      {"measurement": "Activity", "setting": "HeLa [9]", "value": 21.67, "unit": "%"},
      {"measurement": "IC50", "setting": "[10]", "value": 119, "unit": "nM"},
      {"measurement": "Activity", "setting": "HCT-116 [11]", "value": 1.71, "unit": "%"},
      {"measurement": "IC50", "setting": "[12]", "value": 215, "unit": "nM"},
      {"measurement": "IC50", "setting": "MDA-MB-231", "value": 928, "unit": "nM"},
      {"measurement": "IC50", "setting": "[13]", "value": 9, "unit": "nM"},
      {"measurement": "Activity", "setting": "HeLa [14]", "value": 52.88, "unit": "%"},
      {"measurement": "inhibition", "setting": "[15]", "value": "Dose-dependent-effect"},
      {"measurement": "Vz", "setting": "[16]", "value": 398.7, "unit": "L/kg"},
      {"measurement": "Activity", "setting": "HeLa [17]", "value": 62.6, "unit": "%"},
      {"measurement": "Activity", "setting": "HCT-116 [18]", "value": 24.4, "unit": "%"},
      {"measurement": "inhibition in vivo at 35 mg/kg/day", "setting": "HCT-116 [19]", "value": 39, "unit": "%"},
      {"measurement": "Activity", "setting": "HCT-116 [20]", "value": 22.25, "unit": "%"},
      {"measurement": "inhibition", "setting": "[21]", "value": "Dose-dependent-effect"},
      {"measurement": "MRT last at 36 h", "setting": "[22]", "value": 2.7, "unit": "h"},
      {"measurement": "Activity", "setting": "HCT-116 [23]", "value": "Active"},
      {"measurement": "Tmax", "setting": "[24]", "value": 0.5, "unit": "h"},
      {"measurement": "Activity", "setting": "HCT-116 [25]", "value": 33.27, "unit": "%"},
      {"measurement": "Activity", "setting": "HCT-116 [26]", "value": 15.5, "unit": "%"},
      {"measurement": "Activity", "setting": "HeLa [27]", "value": 1.28, "unit": "%"},
      {"measurement": "Activity", "setting": "HeLa [28]", "value": 50.55, "unit": "%"},
      {"measurement": "Activity", "setting": "HCT-116 [29]", "value": "Active"},
      {"measurement": "Activity", "setting": "HCT-116 [30]", "value": 31.2, "unit": "%"},
      {"measurement": "AUC(0-t) at 36 h", "setting": "[31]", "value": 143, "unit": "ng·h/mL"},
      {"measurement": "Cmax", "setting": "[32]", "value": 21.1, "unit": "ng/mL"},
      {"measurement": "Activity", "setting": "HeLa [33]", "value": "Dose-dependent-effect"},
      {"measurement": "CL", "setting": "[34]", "value": 1130, "unit": "mL/min/kg"},
      {"measurement": "Activity", "setting": "HCT-116 [35]", "value": "No effect"}
    ]}
  ]
}
